Source: patent US9095623B2, “Terminally-functionalized conjugates and uses thereof” (SmartCells, Inc., priority 2009, dated 2015)

Assay: Blood glucose depression profile after subcutaneous injection in fasted normal non-diabetic rats
Type: in vivo, Male Sprague-Dawley rats
Procedure: Subcutaneous injections of the insulin-dextran were administered using 0.25 ml of a sterilized 1×PBS solution ([…] of equivalent insulin/ml) behind the neck of fasted normal non-diabetic rats (Male Sprague-Dawley, 200-250 g, n=4). Blood samples were collected via tail vein bleeding at −15 and 0 minutes, and at 15, 30, 45, 60, 90, 120, 180, 240, 300 and 360 minutes after injection.
This example evaluates the in vivo pharmacodynamic profile of subcutaneously administered insulin-glycogen. The insulin-glycogen conjugate was synthesized according to Example 8. The bioactivity of the insulin-glycogen conjugate was evaluated by injecting a 2.5 equivalent U of insulin/kg dose behind the neck of fasted normal non-diabetic rats (Male Sprague-Dawley, 200-250 g, n=4). Blood samples were collected via tail vein bleeding at −15 and 0 minutes, and at 15, 30, 45, 60, 90, 120, 180, 240, 300 and 360 minutes after injection. […] This rapid action and elimination profile is due to the rapid enzymatic digestion of the high MW glycogen polymer chain following subcutaneous injection.

[1] = 0.25 ml of 20 U of equivalent insulin/ml, FIG. 5

## insulin-dextran: comparative conjugate of recombinant human insulin and dextran (MW 70K) made by CNBr coupling
[1]
  time serum glucose levels remain depressed post injection: at least five
  time to reach the glucose nadir (Tnadir): about 3 hours

## insulin-glycogen: comparative conjugate of insulin and oyster glycogen (Type II) made by CNBr coupling, Example 8
2.5 equivalent U of insulin/kg, FIG. 6
  glucose lowering as compared to the insulin-dextran conjugates: lower glucose levels much more rapidly and to a greater extent
